Here are results for 2 compounds from patent publication US10688188B2, “Polytetrafluoroethylene co-polymer emulsions” (W. L. Gore & Associates, Inc., priority 2012, dated 2020).

Each structure is given as a SMILES string.

This data set in a line: Solubility statements. The format is physicochemical.

For `C[C@@H]1C[C@H]2[C@@H]3CCC4=CC(=O)C=C[C@]4(C)[C@@]3(F)[C@@H](O)C[C@]2(C)[C@@]1(O)C(=O)COP(=O)(O)O` [DSP, dexamethasone sodium phosphate], where the note is “DSP in acetone”, the solubility in acetone result is “nonsolvent”. Moreover, the “solubility in Fluorinert” value (Fluorinert FC77) is given as “nonsolvent”.

For the compound `C[C@@H]1C[C@H]2[C@@H]3CCC4=CC(=O)C=C[C@]4(C)[C@@]3(F)[C@@H](O)C[C@]2(C)[C@@]1(O)C(=O)CO` [dexamethasone], the “solubility in acetone (Solution V)” value (1.0 g in 100 g Solution V) is listed as “dissolve completely”.
